Data taken from US20210063414A1, “METHODS FOR PREVENTING AND/OR TREATING BONE LOSS CONDITIONS BY MODULATING IRISIN” (Dana-Farber Cancer Institute, Inc., priority 2018, published 2021).

Test system: sclerostin mRNA in MLO-Y4 cells
Assay: Sclerostin mRNA in MLO-Y4 cells, qRT-PCR
Format: cell-based, mouse
Conditions: MLO-Y4, inhibitor pre-treatment 10 minutes, irisin 16 hours
Description: Cells were stained with Hoechst 33342 and Eth-D1, and analyzed to determine the percentage of cell death. *: p<0.05, ***: p<0.001 vs 0.3 mM H2O2 treated condition. […] MLO-Y4 cells were seeded and incubated until 60% cell density. The cells were incubated with Freestyle293 medium for 4 hours and were treated with indicated concentrations of irisin for 16 hours. Sclerostin mRNA level was analyzed by qRT-PCR. Cyclophilin was used as a control house-keeping gene.
MLO-Y4 cells were incubated in serum free medium for 3 hours followed by treatment of indicated concentrations of irisin for indicated time (FIG. 6A), or followed by treatment of 0 or 10 nM irisin in the presence of indicated integrin inhibitors or their control peptide for 16 hours (FIG. 6B). Sclerostin mRNA level was analyzed by qPCR.
Certain materials and methods were used to generate the results described herein. For example, the data shown in FIG. 1A resulted from MLO-Y4 (an osteocyte-like cell line) cells treated with the indicated concentration of irisin and hydrogen peroxide for 4 hours. Cells were stained with Hoechst 33342 (ThermoFisher Scientific, catalog number H3570) and Eth-D1 (ThermoFisher Scientific, catalog number E1169) and analyzed to determine the percentage of cell death using ImageJ. The data shown in FIG. 2D resulted from MLO-Y4 incubated in serum free medium (FreeStyle™ 293 expression medium, ThermoFisher Scientific, catalog number 12338018) for 4 hours followed by treatment of indicated concentrations of irisin for 10 minutes. Cells were lysed to detect the indicated protein level using immunoblot analysis (Cell Signaling Technology, catalog numbers 3283S, 3285S, 8467S, 3553S, 9198S, and 9104S; Abcam, catalog number ab49900-100ul). The data shown in FIG. 3 resulted from 3T3-F442A cells incubated in serum free medium for 4 hours followed by treatment of indicated concentrations of irisin for 10 minutes. Cells were lysed by RIPA buffer to detect the indicated protein level using immunoblot analysis. The data shown in FIG. 4 were generated from 100 nM flag-tagged irisin (Enzo life sciences, catalog number ADI-908-307-3010) incubated with 5 nM of the indicated 6 his-tag integrins (R & D Systems Inc., catalog numbers 7064-AB-025, 5668-A4-050, 5438-A9-050, 6357-AB-050, and 6579-AV-025) in the presence of RGDS peptide (R & D Systems Inc., catalog number 3498/10) or its control peptide (Enzo Life Sciences, catalog Number BML-P701-0005) followed by immunoprecipitation using 6 his-tag beads (ThermoFisher Scientific, catalog number R901-01). Co-precipitated irisin was analyzed by immunoblot analysis against flag tag (Sigma Aldrich, catalog number A8592). The data shown in FIGS. 5A and 5B were generated from MLO-Y4 cells treated and analyzed as in the experiments used to generate the data shown in FIG. 2D, except that pre-treatment of 100 nM RGDS (FIG. 5A) or echistatin (R & D Systems Inc., catalog number 3202/100U) (FIG. 5B) for 10 minutes was performed before irisin treatment. The data shown in FIGS. 6A and 6B were generated from MLO-Y4 cells incubated in serum free medium for 3 hours followed by treatment of indicated time of 10 nM irisin for 16 hours. RNAs were extracted from the cells and the sclerostin mRNA level was analyzed by qPCR (FIG. 6A) or treated and analyzed as in (FIG. 6A), except that pre-treatment of 10 μM RGDS, RGDyK (Selleck, catalog number S7844), or echistatin was performed for 10 minutes before irisin treatment. […] Sclerostin mRNA level was analyzed by qPCR (FIG. 7A). […]

Question: How did the “effect of integrin inhibitor on irisin-induced sclerostin mRNA” value turn out when N=C(N)NCCC[C@@H]1NC(=O)[C@H](CCCCN)NC(=O)[C@@H](Cc2ccc(O)cc2)NC(=O)[C@H](CC(=O)O)NC(=O)CNC1=O [cyclo RGDyK] was run?
Answer: prevented sclerostin induction

Question: And the “effect of integrin inhibitor on irisin-induced sclerostin mRNA” value (listed as RGDyK circular peptide)?
Answer: sensitive

Question: What does the source list for “RGDS peptide: classical integrin competitive inhibitory peptide, commercially available form of the RGD peptide”?
Answer: effect of integrin inhibitor on irisin-induced sclerostin mRNA: sensitive; effect of integrin inhibitor on irisin-induced sclerostin mRNA (listed as RGD peptide): prevented sclerostin induction
